Measured values taken from patent US12473310B2, “Vitamin D3 phosphate and pharmaceutically acceptable salts thereof, pharmaceutical compositions comprising the compound and methods for preparing the compound” (King's College London, priority 2020, dated 2025).
Counter-ions that a name gives are not always drawn.

Experiments:
[1] = parameters: species or system porcine
Method: To verify the percentage of drug that could be recovered from each layer of the skin, each layer was isolated for a 2.19±0.21 cm^2 piece of skin, the drug was spiked into each layer, it was incubated and then recovered. For the SC tape stripping as described above was used to isolate the skin layer. A total of 20 pieces of tape were used to remove the SC and these strips were added into sample bottles. The epidermis was removed from the dermis, cut into small pieces, and placed into bottles. The test solutions were spiked (500 μL) into a sample bottle containing the SC and (200 μL) into the sample bottles containing the epidermis and dermis. The samples containing the spiked drugs were left for 1 h for the drugs to absorb into the tissues. After the 1 h incubation period, 10 mL of extraction fluid (PG:EtOH, 50:50 for cholecalciferol and MeOH:water, 90:10 for cholecalciferol phosphate) was added into SC, and 2 mL of extraction fluid was added into epidermis and dermis then incubated in a shaking water bath overnight at 32° C. The solutions with both epidermis and dermis were then homogenised by Ultra Turrax for 1 min and filtered using 0.2 μm syringe filters and analysed by HPLC method.

[2] = chemical stability on storage over 4 weeks; format: physicochemical
Method: The chemical stability of cholecalciferol phosphate acid/disodium salt was assessed in three different conditions over a 4-week period. Aliquots of 2 mg for each sample was stored at room temperature, 4° C., and −20° C. in a glass bottle covered with foil. A 20 mL sample of MeOH and MeOH:water (90:10) was added to cholecalciferol phosphate acid and cholecalciferol phosphate disodium salt, and the concentration and purity were assessed every week by the HPLC method described previously. The peak area was used to calculate sample concentration and the gradient of the data points being used to calculate the degradation rate.

[3] = solubility of disodium salt in water by HPLC; format: physicochemical; conditions: thermodynamic from solid, distilled water
Method: Cholecalciferol phosphate disodium salt was added into 1.5 mL distilled water until it generated precipitation. The supersaturated solution was filtered into a glass bottle through a 0.45 μm syringe filter, diluted in water (1:100), then MeOH was added to make MeOH:water (90:10), and injected into the HPLC.

physchem = format: physicochemical; conditions: 22 °C, organic solvent or mixture, thermodynamic from solid, HPLC
Method: An aliquot of 2.5 mg cholecalciferol and 2.5 mg cholecalciferol phosphate disodium salt prepared according to Example 1 were weighed into glass vials and 100 μL aliquots of the test solvents with different dielectric constants; water, MeOH:water (90:10), ethylene glycol, methanol (MeOH), propylene glycol (PG), ethanol (EtOH), poly(ethylene glycol) (PEG-400), and mineral oil were added until the sample was fully dissolved visually. A precise determination of the solubility was undertaken using high-performance liquid chromatography (HPLC). In the HPLC solubility studies an excess amount of cholecalciferol and cholecalciferol phosphate was added into 2 mL of each test solvent; water, MeOH:water (90:10), MeOH, and PG, EtOH and mineral oil. The solutions were left stirring overnight at room temperature, (RT), 22° C. The saturation of the solutions was confirmed by the visual appearance of crystals and the drug suspensions were filtered through 0.2 μm syringe filters, diluted, and the concentration of each sample was assessed using the HPLC method detailed below.
HPLC analysis was conducted using an HPLC system consisting of an auto-sample injector (Jasco AS-4050, Japan), a pump (Jasco PU-4180, Japan), and a photodiode array detector (Jasco MD-4017, Japan). The data was collected and analysed using the ChromNAV software. […]

Row | Compound | % Recovery, drug extraction validation, Epidermis [1] [%] | change of purity over 4 weeks ([2]; all storage conditions) | degradation over 4 weeks ([2]; room temperature, 4° C. and −20° C.) | solubility [3] [mg/mL] | solubility (physchem) [µg/mL]
1 | C=C1CC[C@H](O)C/C1=C/C=C1\CCC[C@]2(C)[C@@H]([C@H](C)CCCC(C)C)CC[C@@H]12 [Cholecalciferol, cholecalciferol, reference compound] | 104.86 ± 0.54 | – | – | – | –
2 | C=C1CC[C@H](OP(=O)(O)O)C/C1=C/C=C1\CCC[C@@]2(C)C1CC[C@@H]2[C@H](C)CCCC(C)C (some centres unmarked) [Cholecalciferol phosphate disodium salt, cholecalciferol phosphate disodium salt] | – | less than 1% | did not degrade at any of the storage conditions | 78.7 | 3700
